This assay addresses T1, CD73 (Homo sapiens, UniProt P21589).
T1 sequence (P21589 27-549): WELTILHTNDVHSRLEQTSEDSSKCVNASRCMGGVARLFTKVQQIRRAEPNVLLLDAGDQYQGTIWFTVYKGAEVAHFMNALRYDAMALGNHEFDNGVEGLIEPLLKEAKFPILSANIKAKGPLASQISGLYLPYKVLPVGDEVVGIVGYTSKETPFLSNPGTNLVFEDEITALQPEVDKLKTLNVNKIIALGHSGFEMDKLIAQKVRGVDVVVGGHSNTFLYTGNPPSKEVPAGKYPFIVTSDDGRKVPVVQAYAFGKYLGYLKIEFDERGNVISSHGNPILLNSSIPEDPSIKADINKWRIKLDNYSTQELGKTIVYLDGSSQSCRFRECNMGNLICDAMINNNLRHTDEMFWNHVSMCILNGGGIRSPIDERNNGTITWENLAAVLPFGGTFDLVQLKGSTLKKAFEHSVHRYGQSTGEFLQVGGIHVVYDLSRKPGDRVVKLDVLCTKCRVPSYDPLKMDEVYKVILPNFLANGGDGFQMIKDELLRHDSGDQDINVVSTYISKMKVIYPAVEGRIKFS
The assay is described as follows: Biochemical assay of CD73 inhibition (Malachite Green). The conditions noted are these: CD73 0.3208 nM, AMP 15 μM, Tris-HCl pH 7.4, Malachite Green absorbance readout; read-out: CD73_Biochem. The procedure:
Example A1: Biochemical Assay
Assay Reaction Conditions
• Assay Volume: 70 μl • Reaction Volume: 50 μl • CD73: 0.3208 nM • AMP:15 μM • Assay Buffer: 2 5 mM Tris-HCL, pH 7.4, 0.01% Brij-35, 0.01% BSA, 5 mM MgCl2 Assay Procedure:
Made dose titration of testing compounds in assay buffer, 10 points 1/2 log titrations in duplicates starting at 100 μM.
Added 25 µl of CD73 to each well for a final concentration of […].
Incubated at RT for 15 min.
Added 25 µl of AMP to each well for a final concentration of 15 μM.
Incubated at RT for 10 min.
Added […] of Malachite Green Reagent A, incubate at RT for 10 min.
Added […] of Malachite Green Reagent B, incubate at RT for 45 min.
Read the Absorbance on Envision plate reader using excitation filter: Cy5 […].
The ability of the compounds disclosed herein to inhibit CD73 activity was quantified and the respective IC50 values were determined. Table 2 provides the biochemical IC50 values of compounds disclosed herein.
`COCC(OC[C@H]1O[C@@H](n2ncc3c(NC4CCCC4)nc(Cl)nc32)[C@H](O)[C@@H]1O)(C(=O)O)P(=O)(O)O` (stereo partly drawn) [Example 46, 2-(((2R,3S,4R,5R)-5-(6-chloro-4-(cyclopentylamino)-1H-pyrazolo[3,4-d]pyrimidin-1-yl)-3,4-dihydroxytetrahydrofuran-2-yl)methoxy)-3-methoxy-2-phosphonopropanoic acid]: the IC50 is no more than 0.01 µM.

With `O=P(O)(O)[C@](CO)(Cc1nn[nH]n1)OC[C@H]1O[C@@H](n2ncc3c(NCC4CCC4)nc(Cl)nc32)[C@H](O)[C@@H]1O` [Example 19, ((S)-2-(((2R,3S,4R,5R)-5-(6-chloro-4-((cyclobutylmethyl)amino)-1H-pyrazolo[3,4-d]pyrimidin-1-yl)-3,4-dihydroxytetrahydrofuran-2-yl)methoxy)-1-hydroxy-3-(2H-tetrazol-5-yl)propan-2-yl)phosphonic acid], the IC50 is no more than 0.01 µM.

Regarding `O=c1[nH]c(C[C@](CO)(OC[C@H]2O[C@@H](n3ncc4c(NC5CCCC5)nc(Cl)nc43)[C@H](O)[C@@H]2O)P(=O)(O)O)no1` [Example 27, ((S)-2-(((2R,3S,4R,5R)-5-(6-chloro-4-(cyclopentylamino)-1H-pyrazolo[3,4-d]pyrimidin-1-yl)-3,4-dihydroxytetrahydrofuran-2-yl)methoxy)-1-hydroxy-3-(5-oxo-4,5-dihydro-1,2,4-oxadiazol-3-yl)propan-2-yl)phosphonic acid], the IC50 is no more than 0.01 µM.

As for `COCC(CC(=O)NS(C)(=O)=O)(OC[C@H]1O[C@@H](n2ncc3c(NC4CCCC4)nc(Cl)nc32)[C@H](O)[C@@H]1O)P(=O)(O)O` (stereo partly drawn) [Example 12, (2-(((2R,3S,4R,5R)-5-(6-chloro-4-(cyclopentylamino)-1H-pyrazolo[3,4-d]pyrimidin-1-yl)-3,4-dihydroxytetrahydrofuran-2-yl)methoxy)-1-methoxy-4-(methylsulfonamido)-4-oxobutan-2-yl)phosphonic acid], the IC50 is no more than 0.01 µM.

Consider `CC(C)CNc1nc(Cl)nc2c1cnn2[C@@H]1O[C@H](CO[C@](CO)(Cc2nn[nH]n2)P(=O)(O)O)[C@@H](O)[C@H]1O` [Example 33, ((R)-2-(((2R,3S,4R,5R)-5-(6-chloro-4-(isobutylamino)-1H-pyrazolo[3,4-d]pyrimidin-1-yl)-3,4-dihydroxytetrahydrofuran-2-yl)methoxy)-1-hydroxy-3-(2H-tetrazol-5-yl)propan-2-yl)phosphonic acid], for which the IC50 was no more than 0.01 µM.

For `COCC(COCc1nn[nH]n1)(OC[C@H]1O[C@@H](n2ncc3c(NC4CCCC4)nc(C#CC4CC4)nc32)[C@H](O)[C@@H]1O)P(=O)(O)O` (stereo partly drawn) [Example 53, (1-((2H-tetrazol-5-yl)methoxy)-2-(((2R,3S,4R,5R)-5-(4-(cyclopentylamino)-6-(cyclopropylethynyl)-1H-pyrazolo[3,4-d]pyrimidin-1-yl)-3,4-dihydroxytetrahydrofuran-2-yl)methoxy)-3-methoxypropan-2-yl)phosphonic acid], the IC50 was no more than 0.01 µM.

Take `O=P(O)(O)[C@@](CO)(COCc1nn[nH]n1)OC[C@H]1O[C@@H](n2ncc3c(NC4CCC4)nc(Cl)nc32)[C@H](O)[C@@H]1O` [Example 55, ((S)-1-((2H-tetrazol-5-yl)methoxy)-2-(((2R,3S,4R,5R)-5-(6-chloro-4-(cyclobutylamino)-1H-pyrazolo[3,4-d]pyrimidin-1-yl)-3,4-dihydroxytetrahydrofuran-2-yl)methoxy)-3-hydroxypropan-2-yl)phosphonic acid]: the IC50 is no more than 0.01 µM.

With `COCC(CC(=O)NO)(OC[C@H]1O[C@@H](n2ncc3c(NC4CCCC4)nc(Cl)nc32)[C@H](O)[C@@H]1O)P(=O)(O)O` (stereo partly drawn) [Example 11, (2-(((2R,3S,4R,5R)-5-(6-chloro-4-(cyclopentylamino)-1H-pyrazolo[3,4-d]pyrimidin-1-yl)-3,4-dihydroxytetrahydrofuran-2-yl)methoxy)-4-(hydroxyamino)-1-methoxy-4-oxobutan-2-yl)phosphonic acid], the IC50 was no more than 0.01 µM.

With `O=P(O)(O)[C@](CO)(Cc1nn[nH]n1)OC[C@H]1O[C@@H](n2ncc3c(NCc4ccccc4Cl)nc(Cl)nc32)[C@H](O)[C@@H]1O` (single isomer, unassigned) [Example 4], the IC50 was in the range of 0.01 to 0.1 µM.

Take `O=P(O)(O)[C@@](CO)(Cc1nn[nH]n1)OC[C@H]1O[C@@H](n2ncc3c(N[C@@H]4CCc5ccccc54)nc(Cl)nc32)[C@H](O)[C@@H]1O` [Example 48, ((R)-2-(((2R,3S,4R,5R)-5-(6-chloro-4-(((R)-2,3-dihydro-1H-inden-1-yl)amino)-1H-pyrazolo[3,4-d]pyrimidin-1-yl)-3,4-dihydroxytetrahydrofuran-2-yl)methoxy)-1-hydroxy-3-(2H-tetrazol-5-yl)propan-2-yl)phosphonic acid]: the IC50 is no more than 0.01 µM.

Take `O=P(O)(O)[C@@](CO)(Cc1nn[nH]n1)OC[C@H]1O[C@@H](n2ncc3c(NCc4ccccc4Cl)nc(Cl)nc32)[C@H](O)[C@@H]1O` (single isomer, unassigned) [Example 3]: the IC50 is no more than 0.01 µM.

As to `O=P(O)(O)[C@@](CO)(COCc1nn[nH]n1)OC[C@H]1O[C@@H](n2ncc3c(NCC4CCC4)nc(Cl)nc32)[C@H](O)[C@@H]1O` [Example 58, ((S)-1-((2H-tetrazol-5-yl)methoxy)-2-(((2R,3S,4R,5R)-5-(6-chloro-4-((cyclobutylmethyl)amino)-1H-pyrazolo[3,4-d]pyrimidin-1-yl)-3,4-dihydroxytetrahydrofuran-2-yl)methoxy)-3-hydroxypropan-2-yl)phosphonic acid], the IC50 was no more than 0.01 µM.

Turning to `COC[C@@](OC[C@H]1O[C@@H](n2ncc3c(NC4CCCC4)nc(Cl)nc32)[C@H](O)[C@@H]1O)(C(=O)NO)P(=O)(O)O` [Example 37, ((S)-2-(((2R,3S,4R,5R)-5-(6-chloro-4-(cyclopentylamino)-1H-pyrazolo[3,4-d]pyrimidin-1-yl)-3,4-dihydroxytetrahydrofuran-2-yl)methoxy)-1-(hydroxyamino)-3-methoxy-1-oxopropan-2-yl)phosphonic acid], the IC50 was no more than 0.01 µM.

For the compound `COC[C@](CC(=O)NO)(OC[C@H]1O[C@@H](n2ncc3c(NC4CCCC4)nc(Cl)nc32)[C@H](O)[C@@H]1O)P(=O)(O)O` [Example 8, ((R)-2-(((2R,3S,4R,5R)-5-(6-chloro-4-(cyclopentylamino)-1H-pyrazolo[3,4-d]pyrimidin-1-yl)-3,4-dihydroxytetrahydrofuran-2-yl)methoxy)-4-(hydroxyamino)-1-methoxy-4-oxobutan-2-yl)phosphonic acid], the IC50 is no more than 0.01 µM.

Regarding `O=c1[nH]c(COCC(CO)(OC[C@H]2O[C@@H](n3ncc4c(NC5CCCC5)nc(Cl)nc43)[C@H](O)[C@@H]2O)P(=O)(O)O)no1` (stereo partly drawn) [Example 51, (2-(((2R,3S,4R,5R)-5-(6-chloro-4-(cyclopentylamino)-1H-pyrazolo[3,4-d]pyrimidin-1-yl)-3,4-dihydroxytetrahydrofuran-2-yl)methoxy)-1-hydroxy-3-((5-oxo-4,5-dihydro-1,2,4-oxadiazol-3-yl)methoxy)propan-2-yl)phosphonic acid], the IC50 is no more than 0.01 µM.

For `O=P(O)(O)C(COCc1nnn[nH]1)(Cc1nnn[nH]1)OC[C@H]1O[C@@H](n2ncc3c(NC4CCCC4)nc(Cl)nc32)[C@H](O)[C@@H]1O` (stereo in doubt) [Example 41, ((S)-1-((1H-tetrazol-5-yl)methoxy)-2-(((2R,3S,4R,5R)-5-(6-chloro-4-(cyclopentylamino)-1H-pyrazolo[3,4-d]pyrimidin-1-yl)-3,4-dihydroxytetrahydrofuran-2-yl)methoxy)-3-(1H-tetrazol-5-yl)propan-2-yl)phosphonic acid], the IC50 was no more than 0.01 µM.

As for `COC[C@](Cc1nn[nH]n1)(OC[C@H]1O[C@@H](n2ncc3c(NC(C)C)nc(Cl)nc32)[C@H](O)[C@@H]1O)P(=O)(O)O` [Example 31, ((R)-2-(((2R,3S,4R,5R)-5-(6-chloro-4-(isopropylamino)-1H-pyrazolo[3,4-d]pyrimidin-1-yl)-3,4-dihydroxytetrahydrofuran-2-yl)methoxy)-1-methoxy-3-(2H-tetrazol-5-yl)propan-2-yl)phosphonic acid], the IC50 is no more than 0.01 µM.

In the case of `O=P(O)(O)C(CO)(COCc1nn[nH]n1)OC[C@H]1O[C@@H](n2ncc3c(N[C@@H]4CCc5ccccc54)nc(Cl)nc32)[C@H](O)[C@@H]1O` (stereo partly drawn) [Example 60, (1-((2H-tetrazol-5-yl)methoxy)-2-(((2R,3S,4R,5R)-5-(6-chloro-4-(((R)-2,3-dihydro-1H-inden-1-yl)amino)-1H-pyrazolo[3,4-d]pyrimidin-1-yl)-3,4-dihydroxytetrahydrofuran-2-yl)methoxy)-3-hydroxypropan-2-yl)phosphonic acid], the IC50 is no more than 0.01 µM.

The record behind these values is patent US11130778B2, “CD73 inhibitors” (ORIC Pharmaceuticals, Inc., priority 2019, dated 2021).
